Measured values: patent US12422438B2, “Means and methods for single molecule peptide sequencing” (VIB VZW, priority 2017, dated 2025)

Key:
[1] = biological target: T1, T. aquaticus aminopeptidase T (Thermus aquaticus, UniProt P23341); format: biochemical; details: 40° C.; for Km / kcat: PBS; for Km: enzyme 2.0625 μM, substrate 0.0625-2 mM, Lineweaver-Burke plot; for kcat: kcat=Vmax/[E]; for on-time (min) / on-time (s): calculated as 1/kcat
T1 construct: 6xHis (C); made in house; host or cells: E. coli BL21(DE3), pET24b(+)
T1 sequence (P23341 with tags, fused parts or gaps): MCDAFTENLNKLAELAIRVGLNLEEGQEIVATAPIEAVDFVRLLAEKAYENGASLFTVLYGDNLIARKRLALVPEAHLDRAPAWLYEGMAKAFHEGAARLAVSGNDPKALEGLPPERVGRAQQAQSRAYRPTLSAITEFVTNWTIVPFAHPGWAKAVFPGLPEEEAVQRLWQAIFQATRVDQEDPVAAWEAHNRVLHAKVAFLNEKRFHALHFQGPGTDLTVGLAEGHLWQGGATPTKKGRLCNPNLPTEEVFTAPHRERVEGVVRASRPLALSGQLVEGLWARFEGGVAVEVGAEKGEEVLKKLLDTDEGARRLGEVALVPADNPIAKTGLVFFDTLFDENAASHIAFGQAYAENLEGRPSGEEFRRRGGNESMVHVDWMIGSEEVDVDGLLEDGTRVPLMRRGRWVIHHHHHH
Procedure: (§1) The kinetic parameters from T. aquaticus aminopeptidase T for cleaving different amino acid substrates was determined with a p-nitroanilide assay. Substrates consist of an N-terminal amino acid with a p-nitroanilide attached to its C-terminus. Upon amino acid cleavage, the free nitroanilide can be monitored by measuring the absorbance at 405 nm. T. aquaticus aminopeptidase T as depicted in SEQ ID No 8 was added in a concentration of 2.0625 μM (in PBS) to different concentrations of amino acid p-nitroanilide substrate (0.0625, 0.125, 0.25, 0.5, 1 and 2 mM in PBS). Subsequently p-nitroanilide release was continuously measured at 40° C. with a FLUOstar Omega microplate reader (MBG LabTech). From this, the initial velocity of the reaction at each substrate concentration was derived (v0). For each amino acid, a Lineweaver-Burke plot was generated from which the reaction Vmax and enzyme-substrate KM was determined. The turnover number, kcat, was calculated from the Vmax and the enzyme concentration (kcat=Vmax/[E]). The enzyme on-time value was then calculated by taking the reciprocal from the kcat value. The “on-time” values as shown in Table 1 are calculated as 1/kcat and as such is the overall time needed for an enzyme solution on the peptide until catalysis occurs.
(§2) The assays were performed at 40° C. below the enzyme's temperature optimum. Working more closely to the optimal temperature of 70° C. speeds up the reaction speed (kcat and enzyme on-time). […] The results as shown here not only validate the utility of the aminopeptidase as disclosed herein but also underpin and substantiate the methods and uses disclosed in current application.

[2] = Spontaneous Edman degradation (SPITC-induced cleavage) of amino acid p-nitroanilide substrates; details: 30 min at 40° C., 300 mM triethanolamine in 50% acetonitrile (pH 9)
Procedure: FIG. 16. Spontaneous Edman degradation of different amino acid p-nitroanilide substrates. A. Sulfophenyl isothiocyanate (SPITC, 15 mM) and substrate (1.5 mM) were incubated for 30 min at 40° C. in 300 mM triethanolamine in 50% ACN, after which the released p-nitroanilide was quantified by measuring the absorbance at 405 nm. B. Time-kinetic measurement of SPITC-induced amino acid p-nitroanilide substrate cleavage.
Importantly, this spontaneous cleavage activity is also observed under conditions that are not typically used during the cleavage step in the classic Edman degradation reaction. In classic Edman degradation. ITC coupling is achieved under mild alkaline conditions (pyridine, trimethylamine, N-methylpiperidine) and amino acid cleavage under acidic conditions (trifluoroacetic acid). Here both ITC coupling and amino acid cleavage is achieved under mild alkaline conditions (triethanolamine).

[3] = biological target: T1, T. aquaticus aminopeptidase T; test: Aminopeptidase assay with different amino acid p-nitroanilide substrates at 40° C. and 80° C.; format: biochemical; details: 2 h, PBS, substrate 1.5 mM
Procedure: FIG. 11. Aminopeptidase assay with different amino acid p-nitroanilide substrates. Enzyme and substrate (1.5 mM) were incubated for 2 h at 40° C. or 80° C. in PBS, after which the released p-nitroanilide was quantified by measuring the absorbance at 405 nm.
As described herein and in line with the invention described in current application, the activity differs between different amino acids. At 80° C., the panel of amino acid substrates can be roughly divided in fast-cleaved (L, M, Y, R, F) and slow-cleaved (D, P) substrates. However, at 40° C. it seems like the panel is divided in fast-cleaved (Y, R) and slow-cleaved (D, P), and substrates that lie in between (L, M, F). […] Finally, TagAPT is not only active in the p-nitroanilide assay. […] The N-terminal amino acid from peptides with proline at the second position is not easily cleaved since peptide bonds adjacent to the amino acid proline are resistant to cleavage by most peptidases (Iyver et al. 2015 FEBS Open Bio. 2015 Apr. 2; 5:292-302). In contrast to what Is stated in Minagawa et al (1988 Agricultural and Biological Chemistry 52:1755-1763) we show here that T. aquaticus aminopeptidase T can cleave N-terminal amino acids even when proline is at the second position. This surprising finding greatly enhances the generic use of Tag-APT in the method and uses disclosed in current application and in single molecule peptide sequencing in general.

[4] = substrate: CC(C)C[C@H](N)C(=O)Nc1ccc([N+](=O)[O-])cc1; test: purified protein, by the assay type; format: biochemical; details: other: 40° C., PBS, enzyme 2.0625 μM, substrate 0.0625-2 mM, Lineweaver-Burke plot
Procedure: as §1, §2

## C[C@H](N)C(=O)Nc1ccc([N+](=O)[O-])cc1 [Ala]
[1]
  Km: 736 µM
  kcat: 0.01167 s⁻¹
  on-time (min): 1.4 min
  on-time (s): 86 s

## NC(N)=NCCC[C@H](N)C(=O)Nc1ccc([N+](=O)[O-])cc1 [Arg]
[1]
  Km: 415 µM
  kcat: 0.01638 s⁻¹
  on-time (min): 1.0 min
  on-time (s): 61 s
[2]
  cleavage speed category of substrate (endpoint activity measurement): fast-cleaved
[3]; 40° C.
  cleavage speed category of substrate: fast-cleaved
[3]; 80° C.
  cleavage speed category of substrate: fast-cleaved

## N[C@@H](CC(=O)O)C(=O)Nc1ccc([N+](=O)[O-])cc1 [D]
[2]
  cleavage speed category of substrate (endpoint activity measurement): slow-cleaved
[3]; 40° C.
  cleavage speed category of substrate: slow-cleaved
[3]; 80° C.
  cleavage speed category of substrate: slow-cleaved

## N[C@@H](Cc1ccccc1)C(=O)Nc1ccc([N+](=O)[O-])cc1 [F]
[2]
  cleavage speed category of substrate (endpoint activity measurement): fast-cleaved
[3]; 40° C.
  cleavage speed category of substrate: in between
[3]; 80° C.
  cleavage speed category of substrate: fast-cleaved

## NCC(=O)Nc1ccc([N+](=O)[O-])cc1 [Gly]
[1]
  Km: 765 µM
  kcat: 0.00307 s⁻¹
  on-time (min): 5.4 min
  on-time (s): 326 s

## CC(C)C[C@H](N)C(=O)Nc1ccc([N+](=O)[O-])cc1 [Leu, L-leucine-p-nitroanilide]
[1]
  on-time (min): 6.5 min
  on-time (s): 390 s
[2]
  cleavage speed category of substrate (endpoint activity measurement): fast-cleaved
[3]; 40° C.
  cleavage speed category of substrate: in between
[3]; 80° C.
  cleavage speed category of substrate: fast-cleaved

## NCCCC[C@H](N)C(=O)Nc1ccc([N+](=O)[O-])cc1 [Lys]
[1]
  Km: 193 µM
  kcat: 0.00148 s⁻¹
  on-time (min): 11.3 min
  on-time (s): 677 s

## CSCC[C@H](N)C(=O)Nc1ccc([N+](=O)[O-])cc1 [Met]
[1]
  Km: 99 µM
  kcat: 0.00471 s⁻¹
  on-time (min): 3.5 min
  on-time (s): 212 s
[2]
  cleavage speed category of substrate (endpoint activity measurement): fast-cleaved
[3]; 40° C.
  cleavage speed category of substrate: in between
[3]; 80° C.
  cleavage speed category of substrate: fast-cleaved

## O=C(Nc1ccc([N+](=O)[O-])cc1)[C@@H]1CCCN1 [Pro]
[1]
  Km: 546 µM
  kcat: 0.00198 s⁻¹
  on-time (min): 8.4 min
  on-time (s): 504 s
[2]
  cleavage speed category of substrate (endpoint activity measurement): slow-cleaved
[3]; 40° C.
  cleavage speed category of substrate: slow-cleaved
[3]; 80° C.
  cleavage speed category of substrate: slow-cleaved

## N[C@@H](Cc1ccc(O)cc1)C(=O)Nc1ccc([N+](=O)[O-])cc1 [Tyr]
[1]
  Km: 211 µM
  kcat: 0.00707 s⁻¹
  on-time (min): 2.4 min
  on-time (s): 142 s
[2]
  cleavage speed category of substrate (endpoint activity measurement): fast-cleaved
[3]; 40° C.
  cleavage speed category of substrate: fast-cleaved
[3]; 80° C.
  cleavage speed category of substrate: fast-cleaved

## CC(C)[C@H](N)C(=O)Nc1ccc([N+](=O)[O-])cc1 [Val]
[1]
  Km: 192 µM
  kcat: 0.00138 s⁻¹
  on-time (min): 12.1 min
  on-time (s): 727 s

B1: T. aquaticus aminopeptidase T (Thermus aquaticus) (protein)
chain: MCDAFTENLNKLAELAIRVGLNLEEGQEIVATAPIEAVDFVRLLAEKAYENGASLFTVLYGDNLIARKRLALVPEAHLDRAPAWLYEGMAKAFHEGAARLAVSGNDPKALEGLPPERVGRAQQAQSRAYRPTLSAITEFVTNWTIVPFAHPGWAKAVFPGLPEEEAVQRLWQAIFQATRVDQEDPVAAWEAHNRVLHAKVAFLNEKRFHALHFQGPGTDLTVGLAEGHLWQGGATPTKKGRLCNPNLPTEEVFTAPHRERVEGVVRASRPLALSGQLVEGLWARFEGGVAVEVGAEKGEEVLKKLLDTDEGARRLGEVALVPADNPIAKTGLVFFDTLFDENAASHIAFGQAYAENLEGRPSGEEFRRRGGNESMVHVDWMIGSEEVDVDGLLEDGTRVPLMRRGRWVIHHHHHH
notes: 6xHis (C); made in house; host or cells: E. coli BL21(DE3), pET24b(+)
[4]
  Km: 92 µM
  kcat: 0.00256 s⁻¹
  kcat/Km: 27.9 M⁻¹ s⁻¹
